Data reported in publication PMC11148078, “Potent activity of polymyxin B is associated with long-lived super-stoichiometric accumulation mediated by weak-affinity binding to lipid A” (Nature Communications, 2024).
Bridge positions count the residues as written; N and C are the ends. Square brackets hold non-standard residues; d marks the D form. Peptide text beside a SMILES is read from it. * marks the point of attachment. X1 = CC[C@H](C)CCCCC(=O)*; Dab = NCC[C@H](N)C(=O)O

Legend:
[1] = system: resistant-OMVs (E. coli PmrA^G53E); experiment: Single-cycle kinetic SPR binding to immobilized resistant-OMVs; settings: serial doubling injections, C1 chip
Method: Polymyxin B was covalently attached to a C1 chip (Series S Sensor Chip C1, Cytiva) using an amine coupling kit (Cytiva). Cartoon in Fig. 1A created with BioRender (biorender.com). Briefly, equal amounts of reagents N-hydroxysuccinimide and 1-ethyl-3-(3-dimethylaminopropyl) carbodiimide hydrochloride were mixed as per manufacturer’s instructions and immediately added to the gold chip surface for 2 min, washed with distilled deionized water, and dried. Sufficient polymyxin B (1 mM in 1 M HEPES buffer, pH 8) was added to cover the chip surface, incubated at room temperature for 1 h, washed as before, and then incubated with 1 M ethanolamine hydrochloride-NaOH, pH 8.5, for 1 min. The chip surface was washed with water, dried as previously described, immediately loaded into a Biacore S200, and primed with running buffer (described below) to equilibrate the system. C1 chips were used for multiple runs and discarded upon removal from the Biacore S200.
SCK C1-chip SPR experiments were performed in running buffer (Dulbecco’s phosphate-buffered salt solution 1x without calcium or magnesium (Fisher Scientific), pH 7.4, with 0.0005% tween-80 (Sigma) passed through a 0.2 µm filter) unless otherwise indicated. Inclusion of tween-80 prevented loss of polymyxin to the plastics[34] (also see Supplementary Information Methods). For experiments with brevicidine, which was suspended in DMSO, 0.125% DMSO was included in the running buffer. OMVs were diluted from frozen stocks to approximately 20–30 µg/ml protein in the OMV buffer. Capture of OMVs was performed at a low flow rate ([…]) for 300 s over the test channel(s) followed by a 300 s stabilization period. All subsequent steps were at a flow rate of 40 µl/ml. For single cycle kinetics, two-fold dilutions were injected over the channel(s) loaded with OMVs and a reference channel without OMVs for 30 s contact and 480 s dissociation. […]

[2] = system: LPS (rough-LPS extracted from E. coli F583, Rd mutant); experiment: Mechanistic SPR study, purified LPS; type: binding; settings: for Rmax normalized by molecular weight ratio PMB:PMBN: LPS surface
Method: OMV-coated and whole cell-coated C1 chips were prepared as already described with the following changes and LPS-coated surfaces were prepared identically but with rough-LPS extracted from E. coli F583 (Rd mutant, Sigma #L6893). For LPS, cloudy colloid suspension (above its CMC, ~1 mg/ml) contains LPS micelles that were injected and captured. For all formats, sample buffer and running buffer were composed of Dulbecco’s phosphate-buffered salt solution containing 0.0005% tween-80 (Sigma), 1 mM calcium and 0.5 mM magnesium (Fisher Scientific), pH 7.4. Analysis and compartment temperatures were both set to 37 °C. Freshly prepared OMV-coated or whole cell-coated sensing surfaces were employed for each injection of polymyxin B while LPS-coated sensing surfaces could be fully regenerated by injecting 50 mM CHAPS. Reversibly bound PMBN could be reinjected over all surfaces without requiring regeneration as it fully dissociated within a few minutes.
Serial doubling dilutions of PMBN were injected from […] over whole cells and OMVs at […] for 1 min (Fig. 3A, B). This was repeated over LPS-coated sensing surfaces and, in this case, serial doubling dilutions of PMBN were injected from 5 mM to 0.625 mM for 30 s at […], immediately prior to injection of […] polymyxin B for 200 s at […] (Fig. 3D).
Fresh sensing surfaces coated with whole cells and OMVs were prepared and 325 nM polymyxin B was injected at […] for 120 s over both. This injection was repeated after a long delay, and without regeneration, in order to allow free sites to become available thereby resulting in two polymyxin B binding curves for each sensing surface (Fig. 3E, F). A fresh LPS-coated surface was prepared and polymyxin B was injected using SCK injection mode over a serial doubling dilution range from 625 nM to 39 nM.
Section 1 - Mechanistic studies of polymyxins
The interaction models introduced here (Eqn (S1-S3)) are annotated in terms of binding of polymyxin B (PMB) to LPS but also apply to any other affinity binding pair. Molar concentrations of bound PMB are converted to SPR response as R = G.MW.[PMB], where MW is the molecular weight of PMB, and G is a mass-to-response conversion factor. A full quantitative interpretation of SPR sensitivity has been reported1. In a general case, a protein concentration of 0.01 (g/L) produces a response of 1 response unit (RU) yielding the proportionality constant G=100 (L/g).
Here, we assume protein is distributed uniformly within a […] thick hydrogel, dissolved in buffer at near physiological salt concentrations in the absence of high concentrations of high refractive index substances, such as glycerol and DMSO. This calibration may be adjusted for variability in the refractive index increment when working with buffers or other classes of molecules such as nucleic acids, polysaccharides, or drug-like molecules. In addition, binding interactions confined to planar sensing surfaces (i.e., no hydrogel matrix) results in a 1.3-fold increased response due to minimal decay in SPR sensitivity when close to the sensing surface (e.g., < 10 nm). Change in protein accumulation over time produces responses that are indicated here by a time subscript (e.g., R(t)). A simple 1:1 model for binding of PMB to LPS to form an affinity complex PMBL is given by the pseudo-first-order model defined by Eqn (S1). dR/dt = (kon.[PMB]i.(Rmax-R(t)) -koff.R(t)) Eqn (S1)
Where R is the SPR response for accumulation of affinity complex PMBL. [PMB]i is the injected concentration of PMB and Rmax is the saturation response assuming full target occupancy. This model assumes that mass transport of PMB within the flow cell, which governs the rate of exchange of PMB between the bulk liquid and the sensing surface, is non-limiting. However, this […]
in the 1:1 two-compartment model in Eqn (S2). dR/dt = (kon.[PMB].(Rmax-R(t)) -koff.R(t)) + kt.([PMB]i(t) – [PMB]) Eqn (S2) […]

[3] = LPS pre-saturated with polymyxin B

CC(C)C[C@@H]1NC(=O)[C@@H](Cc2ccccc2)NC(=O)[C@H](CCN)NC(=O)[C@@H](NC(=O)[C@H](CCN)NC(=O)[C@@H](N)[C@@H](C)O)CCNC(=O)[C@H]([C@@H](C)O)NC(=O)[C@H](CCN)NC(=O)[C@H](CCN)NC1=O [PMBN] (H-T[Dab][Dab][Dab][dF]L[Dab][Dab]T; lactam 3-C)
SPR binding profile [1]: exhibited only weak, saw-tooth binding | change in affinity and binding capacity after pre-saturation [2, 3]: two-fold drop in both affinity and binding capacity | fold loss in affinity [2, 3]: 2 fold | fold loss in binding capacity [2, 3]: 2 fold | Rmax normalized by molecular weight ratio PMB:PMBN [2]: 415 RU

CC[C@H](C)CCCCC(=O)N[C@@H](CCN)C(=O)N[C@H](C(=O)N[C@@H](CCN)C(=O)N[C@H]1CCNC(=O)[C@H]([C@@H](C)O)NC(=O)[C@H](CCN)NC(=O)[C@H](CCN)NC(=O)[C@H](CC(C)C)NC(=O)[C@@H](Cc2ccccc2)NC(=O)[C@H](CCN)NC1=O)[C@@H](C)O [Polymyxin B] (X1-[Dab]T[Dab][Dab][Dab][dF]L[Dab][Dab]T; lactam 4-C (inferred); N-terminus assumed)
SPR binding profile [1]: exhibited only the weak, saw-tooth binding | Rmax normalized by molecular weight ratio PMB:PMBN [2]: 407 RU | consumption of available LPS ([2]; immediately after polymyxin B saturation): ~ 40% | Kd ([2]; two LPS densities, pre-saturated with polymyxin B, SCK from 625 nM, Eq. S3, (± SE)): 0.127 µM
